# Assay results: US20230000842A1, “METHODS OF TREATING CARTILAGE DISORDERS THROUGH INHIBITION OF CLK AND DYRK” (SAMUMED, LLC, priority 2019, published 2023)
# Key:
# CLK3 kinase = CLK3 kinase (Homo sapiens, UniProt P49761); experiment: CLK3 kinase activity assay (Z-lyte FRET); format: biochemical; conditions: Z-lyte Ser/Thr 18 peptide, 156 μM ATP, 1 h at room temperature;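 note: kinase activity read as coumarin/fluorescein emission ratio by FRET, unphosphorylated peptide as 0% and phosphorylated peptide as 100% control, values from non-linear regression of dose-response curves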
# CLK3 kinase, sequence (P49761 whole entry): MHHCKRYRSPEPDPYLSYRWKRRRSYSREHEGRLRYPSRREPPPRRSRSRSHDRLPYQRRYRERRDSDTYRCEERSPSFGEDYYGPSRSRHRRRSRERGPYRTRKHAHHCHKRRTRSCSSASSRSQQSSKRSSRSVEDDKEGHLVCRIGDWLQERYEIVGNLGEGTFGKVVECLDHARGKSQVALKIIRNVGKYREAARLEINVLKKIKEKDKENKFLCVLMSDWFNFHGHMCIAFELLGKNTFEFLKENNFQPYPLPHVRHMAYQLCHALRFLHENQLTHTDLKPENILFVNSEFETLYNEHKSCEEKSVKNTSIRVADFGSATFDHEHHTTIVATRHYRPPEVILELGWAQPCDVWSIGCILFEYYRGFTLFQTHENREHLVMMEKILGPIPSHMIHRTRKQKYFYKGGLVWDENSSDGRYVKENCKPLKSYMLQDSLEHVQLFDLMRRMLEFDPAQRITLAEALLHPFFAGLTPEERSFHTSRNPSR
# CLK2 kinase = CLK2 kinase (Homo sapiens, UniProt P49760); experiment: CLK2 kinase activity assay (Z-lyte FRET); format: biochemical; conditions: Z-lyte Ser/Thr 6 peptide, 60 μM ATP, 1 h at room temperature;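 note: FRET read-out as coumarin to fluorescein emission ratio, unphosphorylated peptide as 0% and phosphorylated peptide as 100% controls, duplicate reactions, non-linear regression fit of dose-response curves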
# CLK2 kinase, sequence (P49760 whole entry): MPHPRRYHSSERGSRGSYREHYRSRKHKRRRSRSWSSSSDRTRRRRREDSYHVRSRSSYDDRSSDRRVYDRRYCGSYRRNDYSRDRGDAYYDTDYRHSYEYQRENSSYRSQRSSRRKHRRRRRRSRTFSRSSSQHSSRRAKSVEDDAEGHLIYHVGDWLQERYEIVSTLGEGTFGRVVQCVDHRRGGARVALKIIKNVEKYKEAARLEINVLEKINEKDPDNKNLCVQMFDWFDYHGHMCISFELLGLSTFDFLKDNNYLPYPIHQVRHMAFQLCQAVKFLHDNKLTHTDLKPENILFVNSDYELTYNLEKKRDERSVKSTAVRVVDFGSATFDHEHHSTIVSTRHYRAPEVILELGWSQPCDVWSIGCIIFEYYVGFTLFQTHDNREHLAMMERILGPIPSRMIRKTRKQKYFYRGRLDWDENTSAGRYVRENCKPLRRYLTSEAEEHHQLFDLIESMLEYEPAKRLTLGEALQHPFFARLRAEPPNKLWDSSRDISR
# [1] = test system: primary human mesenchymal stem cells (hMSCs); experiment: Chondrogenesis screening using primary human mesenchymal stem cells; format: cell-based; conditions: Homo sapiens, Mesenchymal stem cells, hMSC chondrogenesis; for EC50: concentration required to induce 50% levels of chondrogenesis with TGF-β3 as positive control, read-out: Conc (nM) of 50% TGF-β3 activity; for Emax: maximum activity relative to TGF-β3 (10 ng/mL) positive control, read-out: Max. Activity as % TGF-β3 activity
# Method in brief: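 Derived values are EC50 for 50% chondrogenesis, maximal activity and the dose giving it. These come from nodule area in passage 3–6 primary hMSCs, expressed as fold change over the mean of 3 same-plate DMSO wells, 2–3 replicates per concentration. TGF-β3 served as positive control.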
# [2] = test system: Wnt pathway activity (SW480 colon carcinoma cells stably expressing the Sp5-Luc reporter); experiment: Wnt pathway activity screening assay (Sp5-Luc reporter gene assay); conditions: Homo sapiens, SW480, Table 4; SW480 cells stably expressing Sp5-Luc reporter, 10-point dose-response from 10 μM, 36 to 48 hours
Compound,EC50 (CLK3 kinase),EC50 (CLK2 kinase),EC50 [1],EC50 [2],Emax [1]
Cc1cn(-c2nccc3[nH]c(-c4n[nH]c5ccc(-c6cncc(NC(=O)CC(C)C)c6)cc45)nc23)cn1 [compound 224],56 nM,12 nM,30 nM,10.4 nM,73.7%
c1cncc(-c2ccc3[nH]nc(-c4nc5c(-c6ccoc6)cncc5[nH]4)c3c2)c1 [compound 229],44 nM,2 nM,100 nM,45.4 nM,149%
CCCC(=O)Nc1cncc(-c2cnc3[nH]nc(-c4nc5c(-c6ccoc6)cccc5[nH]4)c3c2)c1 [compound 230],87 nM,4 nM,100 nM,63 nM,111%
CC(C)(C)C(=O)Nc1cncc(-c2cnc3[nH]nc(-c4nc5c(-c6ccoc6)cncc5[nH]4)c3c2)c1 [compound 232],143 nM,5 nM,30 nM,70 nM,144%
CC(C)CC(=O)Nc1cncc(-c2cc3c(-c4nc5c(-c6ccoc6)cccc5[nH]4)n[nH]c3cn2)c1 [compound 233],521 nM,8 nM,–,55.3 nM,58%
O=C(Cc1ccccc1)Nc1cncc(-c2ccc3[nH]nc(-c4nc5c(-c6ccoc6)cncc5[nH]4)c3c2)c1 [compound 234],120 nM,6 nM,30 nM,33 nM,102%
O=C(Nc1cncc(-c2cnc3[nH]nc(-c4nc5c(-c6ccoc6)cncc5[nH]4)c3c2)c1)c1ccccc1 [compound 235],2630 nM,8 nM,100 nM,51 nM,110%
CC(C)Nc1cncc(-c2ccc3[nH]nc(-c4nc5c(-c6ccoc6)nccc5[nH]4)c3c2)c1 [compound 236],205 nM,19 nM,30 nM,43.5 nM,90.2%
CC(C)Nc1cncc(-c2cnc3[nH]nc(-c4nc5c(-c6ccoc6)nccc5[nH]4)c3c2)c1 [compound 237],134 nM,7 nM,30 nM,52.6 nM,72%
Cc1ccncc1-c1ccc2[nH]nc(-c3nc4c(-c5ccsc5)nccc4[nH]3)c2c1 [compound 242],76 nM,15 nM,10 nM,18.9 nM,156%
CCC(=O)Nc1cncc(-c2cnc3[nH]nc(-c4nc5c(-c6ccsc6)cccc5[nH]4)c3c2)c1 [compound 243],62 nM,5 nM,100 nM,10 nM,167%
CCC(=O)Nc1cncc(-c2ccc3[nH]nc(-c4nc5c(-c6ccsc6)cncc5[nH]4)c3c2)c1 [compound 244],64 nM,16 nM,30 nM,2 nM,203%
CCCC(=O)Nc1cncc(-c2ccc3[nH]nc(-c4nc5c(-c6ccsc6)ccnc5[nH]4)c3c2)c1 [compound 245],9840 nM,34 nM,30 nM,7.7 nM,72.6%
CCCC(=O)Nc1cncc(-c2ccc3[nH]nc(-c4nc5c(-c6ccsc6)cncc5[nH]4)c3c2)c1 [compound 246],21 nM,3 nM,–,61.5 nM,42%
CCNCc1cncc(-c2cc3c(-c4nc5c(-c6ccsc6)nccc5[nH]4)n[nH]c3cn2)c1 [compound 249],30 nM,1 nM,30 nM,59.3 nM,67.7%
CN(C)Cc1cncc(-c2cnc3[nH]nc(-c4nc5c(-c6ccsc6)cncc5[nH]4)c3c2)c1 [compound 252],118 nM,2 nM,–,57 nM,91.3%
FC1(F)CCN(Cc2cncc(-c3ccc4[nH]nc(-c5nc6c(-c7ccsc7)cncc6[nH]5)c4c3)c2)C1 [compound 253],26 nM,7 nM,–,1.8 nM,81.3%
c1cncc(-c2cnc3[nH]nc(-c4nc5c(-c6cccs6)cccc5[nH]4)c3c2)c1 [compound 254],43 nM,3 nM,–,12 nM,41.6%
CCC(=O)Nc1cncc(-c2cnc3[nH]nc(-c4nc5c(-c6cccs6)cncc5[nH]4)c3c2)c1 [compound 255],62 nM,3 nM,–,4 nM,69.8%
CC(C)CC(=O)Nc1cncc(-c2ccc3[nH]nc(-c4nc5c(-c6cccs6)cncc5[nH]4)c3c2)c1 [compound 256],62 nM,9 nM,–,0.1 nM,53.3%
CN(C)c1cncc(-c2ccc3[nH]nc(-c4nc5c(-c6cccs6)cncc5[nH]4)c3n2)c1 [compound 258],83 nM,2 nM,10 nM,710 nM,65.6%
c1csc(-c2cncc3[nH]c(-c4n[nH]c5ncc(-c6cncc(CNCC7CCCC7)c6)cc45)nc23)c1 [compound 259],167 nM,4 nM,–,98 nM,74.6%
CN(C)CCOc1cncc(-c2ccc3[nH]nc(-c4nc5c(-c6cccs6)cccc5[nH]4)c3n2)c1 [compound 261],150 nM,2 nM,10 nM,3110 nM,142%
CC(C)(C)C(=O)Nc1cncc(-c2ccc3[nH]nc(-c4nc5c(-c6ccc(F)s6)ccnc5[nH]4)c3c2)c1 [compound 262],754 nM,85 nM,30 nM,16.7 nM,120%

# Further lines, with some results ahead:
EC50 (CLK3 kinase),EC50 (CLK2 kinase),EC50 [1],EC50 [2],Compound,Emax [1]
123 nM,3 nM,10 nM,> 10000 nM,Cc1cn(-c2ccnc3[nH]c(-c4n[nH]c5ccc(-c6cncc(NC(=O)C(C)(C)C)c6)nc45)nc23)cn1 [compound 223],70.2%
116 nM,4 nM,30 nM,2900 nM,Cc1cn(-c2nccc3[nH]c(-c4n[nH]c5ccc(-c6cncc(NC(=O)CC(C)C)c6)nc45)nc23)cn1 [compound 226],69.3%
1300 nM,10 nM,–,> 10000 nM,Cc1cn(-c2cncc3[nH]c(-c4n[nH]c5ccc(-c6cncc(NC(=O)C7CCC7)c6)nc45)nc23)cn1 [compound 227],47.2%
106 nM,4 nM,300 nM,> 10000 nM,Cc1cn(-c2ccnc3[nH]c(-c4n[nH]c5ccc(-c6cncc(NC(=O)C7CCC7)c6)nc45)nc23)cn1 [compound 228],69.1%
361 nM,3 nM,10 nM,> 10000 nM,CCCCC(=O)Nc1cncc(-c2ccc3[nH]nc(-c4nc5c(-c6ccoc6)cncc5[nH]4)c3n2)c1 [compound 231],73.6%
230 nM,2 nM,30 nM,297 nM,CC(C)Nc1cncc(-c2ccc3[nH]nc(-c4nc5c(-c6ccoc6)nccc5[nH]4)c3n2)c1 [compound 238],76.2%
87 nM,2 nM,30 nM,597 nM,CC(C)Nc1cncc(-c2ccc3[nH]nc(-c4nc5c(-c6ccoc6)cncc5[nH]4)c3n2)c1 [compound 239],75.3%
113 nM,2 nM,100 nM,298 nM,CC(C)Nc1cncc(-c2ccc3[nH]nc(-c4nc5c(-c6ccoc6)ccnc5[nH]4)c3n2)c1 [compound 240],64.2%
48 nM,2 nM,20.6 nM,3640 nM,CCCC(=O)Nc1cncc(-c2ccc3[nH]nc(-c4nc5c(-c6ccsc6)cncc5[nH]4)c3n2)c1 [compound 247],58.4%
115 nM,7 nM,–,22.2 nM,O=C(Nc1cncc(-c2cc3c(-c4nc5c(-c6cccs6)nccc5[nH]4)n[nH]c3cn2)c1)C1CC1 [compound 257],68.3%
358 nM,18 nM,–,35.3 nM,CC(C)(C)C(=O)Nc1cncc(-c2cc3c(-c4nc5c(-c6ccc(F)s6)nccc5[nH]4)n[nH]c3cn2)c1 [compound 263],40.9%
91 nM,8 nM,10 nM,551 nM,CC(C)(C)C(=O)Nc1cncc(-c2ccc3[nH]nc(-c4nc5c(-c6ccc(Cl)s6)cncc5[nH]4)c3n2)c1 [compound 265],84.7%
67 nM,15 nM,10 nM,1480 nM,CC(C)CC(=O)Nc1cncc(-c2ccc3[nH]nc(-c4nc5c(-c6ccc(Cl)s6)cncc5[nH]4)c3n2)c1 [compound 266],60.6%
9840 nM,8 nM,30 nM,823 nM,O=C(Nc1cncc(-c2ccc3[nH]nc(-c4nc5c(-c6ccc(Cl)s6)nccc5[nH]4)c3n2)c1)C1CCC1 [compound 267],60.2%
145 nM,12 nM,30 nM,800 nM,O=C(Nc1cncc(-c2ccc3[nH]nc(-c4nc5c(-c6ccc(Cl)s6)cncc5[nH]4)c3n2)c1)C1CCC1 [compound 268],67.9%
